Laboratory results taken from PMC6009956, “Design, synthesis and biological activity of N^4-phenylsubstituted-7H-pyrrolo[2,3-d]pyrimidin-4-amines as dual inhibitors of aurora kinase A and epidermal growth factor receptor kinase” (Journal of Enzyme Inhibition and Medicinal Chemistry, 2017).
Read-outs that look alike come from different tables or passages of the source.

Assays:
aurora A kinase (AURKA) = target: T1, aurora A kinase (AURKA) (Homo sapiens, UniProt O14965); assay: ADP-Glo kinase assay, Aurora A; format: biochemical
T1 construct: purchased BPS Bioscience (assay run externally by the vendor)
T1 sequence (O14965 1-403): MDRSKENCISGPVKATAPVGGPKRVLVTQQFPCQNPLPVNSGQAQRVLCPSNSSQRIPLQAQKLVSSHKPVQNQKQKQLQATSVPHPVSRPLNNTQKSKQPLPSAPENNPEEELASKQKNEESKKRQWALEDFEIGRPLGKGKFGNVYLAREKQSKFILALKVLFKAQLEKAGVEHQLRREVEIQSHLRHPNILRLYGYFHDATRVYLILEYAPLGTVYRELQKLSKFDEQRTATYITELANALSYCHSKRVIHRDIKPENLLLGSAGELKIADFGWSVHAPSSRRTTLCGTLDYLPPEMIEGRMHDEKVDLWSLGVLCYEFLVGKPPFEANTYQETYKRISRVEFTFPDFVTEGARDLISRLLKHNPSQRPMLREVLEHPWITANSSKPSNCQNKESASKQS

EGFR = EGFR (Homo sapiens, UniProt P00533); assay: ADP-Glo kinase assay, EGFR; format: biochemical; set-up: purchased BPS Bioscience (assay run externally by the vendor)
Sequence of EGFR (P00533 25-1210): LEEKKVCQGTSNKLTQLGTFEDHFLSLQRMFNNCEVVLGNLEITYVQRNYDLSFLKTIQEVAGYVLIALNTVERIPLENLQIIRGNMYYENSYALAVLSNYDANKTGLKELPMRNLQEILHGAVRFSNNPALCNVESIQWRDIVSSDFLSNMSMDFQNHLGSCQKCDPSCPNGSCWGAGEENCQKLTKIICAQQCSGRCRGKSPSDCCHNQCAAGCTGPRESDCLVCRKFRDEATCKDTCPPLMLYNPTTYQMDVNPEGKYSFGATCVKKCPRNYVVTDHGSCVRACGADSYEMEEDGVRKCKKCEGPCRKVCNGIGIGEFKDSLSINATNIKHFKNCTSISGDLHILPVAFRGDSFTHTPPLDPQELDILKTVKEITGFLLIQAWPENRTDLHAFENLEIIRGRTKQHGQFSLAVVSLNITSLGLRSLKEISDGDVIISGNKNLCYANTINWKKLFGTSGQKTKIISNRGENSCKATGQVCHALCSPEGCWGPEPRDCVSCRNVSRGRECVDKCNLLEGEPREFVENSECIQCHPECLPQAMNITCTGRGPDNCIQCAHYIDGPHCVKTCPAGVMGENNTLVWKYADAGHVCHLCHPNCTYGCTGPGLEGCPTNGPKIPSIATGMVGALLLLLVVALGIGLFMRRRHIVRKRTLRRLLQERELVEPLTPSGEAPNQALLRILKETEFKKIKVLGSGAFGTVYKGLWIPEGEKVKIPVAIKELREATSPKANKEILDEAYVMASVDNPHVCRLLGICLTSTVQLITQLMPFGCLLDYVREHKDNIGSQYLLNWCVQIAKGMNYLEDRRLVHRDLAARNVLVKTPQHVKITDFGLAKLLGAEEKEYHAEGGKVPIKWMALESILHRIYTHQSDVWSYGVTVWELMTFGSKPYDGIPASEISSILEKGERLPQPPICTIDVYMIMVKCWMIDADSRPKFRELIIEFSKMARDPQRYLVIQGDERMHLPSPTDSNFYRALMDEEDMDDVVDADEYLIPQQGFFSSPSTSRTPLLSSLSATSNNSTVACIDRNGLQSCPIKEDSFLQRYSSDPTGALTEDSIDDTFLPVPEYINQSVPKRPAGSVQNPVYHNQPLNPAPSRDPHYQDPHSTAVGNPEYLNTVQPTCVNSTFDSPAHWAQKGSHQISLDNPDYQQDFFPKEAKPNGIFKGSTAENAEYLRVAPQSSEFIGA

SMILES: Cc1cccc(Nc2ncnc3[nH]ccc23)c1 [Compound 12, N^4-(3-methylaniline)-7H-pyrrolo[2,3-d]pyrimidin-4-amine]
- IC50 (aurora A kinase (AURKA); 10 µM ATP, triplicate, read-out: AURKA IC50 ± SD): 3430 ± 120 nM
- IC50 (aurora A kinase (AURKA); 10 µM ATP/0.2 mg/ml Kemptide, read-out: Aurora A IC50 (dose-response curve, supplement)): 3400 nM
- Aurora A % Activity Set1 (aurora A kinase (AURKA); Log[nM] 0): 101%
- Aurora A % Activity Set2 (aurora A kinase (AURKA); Log[nM] 0): 105%
- Aurora A % Activity Set3 (aurora A kinase (AURKA); Log[nM] 0): 95%
- Aurora A % Activity Set1 (aurora A kinase (AURKA); Log[nM] 1.0): 100%
- Aurora A % Activity Set2 (aurora A kinase (AURKA); Log[nM] 1.0): 102%
- Aurora A % Activity Set3 (aurora A kinase (AURKA); Log[nM] 1.0): 97%
- Aurora A % Activity Set1 (aurora A kinase (AURKA); Log[nM] 1.5): 97%
- Aurora A % Activity Set2 (aurora A kinase (AURKA); Log[nM] 1.5): 100%
- Aurora A % Activity Set3 (aurora A kinase (AURKA); Log[nM] 1.5): 97%
- Aurora A % Activity Set1 (aurora A kinase (AURKA); Log[nM] 2.0): 96%
- Aurora A % Activity Set2 (aurora A kinase (AURKA); Log[nM] 2.0): 101%
- Aurora A % Activity Set3 (aurora A kinase (AURKA); Log[nM] 2.0): 105%
- Aurora A % Activity Set1 (aurora A kinase (AURKA); Log[nM] 2.5): 89%
- Aurora A % Activity Set2 (aurora A kinase (AURKA); Log[nM] 2.5): 95%
- Aurora A % Activity Set3 (aurora A kinase (AURKA); Log[nM] 2.5): 95%
- Aurora A % Activity Set1 (aurora A kinase (AURKA); Log[nM] 3.0): 89%
- Aurora A % Activity Set2 (aurora A kinase (AURKA); Log[nM] 3.0): 91%
- Aurora A % Activity Set3 (aurora A kinase (AURKA); Log[nM] 3.0): 92%
- Aurora A % Activity Set1 (aurora A kinase (AURKA); Log[nM] 3.5): 48%
- Aurora A % Activity Set2 (aurora A kinase (AURKA); Log[nM] 3.5): 50%
- Aurora A % Activity Set3 (aurora A kinase (AURKA); Log[nM] 3.5): 53%
- Aurora A % Activity Set1 (aurora A kinase (AURKA); Log[nM] 4.0): 17%
- Aurora A % Activity Set2 (aurora A kinase (AURKA); Log[nM] 4.0): 17%
- Aurora A % Activity Set3 (aurora A kinase (AURKA); Log[nM] 4.0): 17%
- Aurora A % Activity Set1 (aurora A kinase (AURKA); Log[nM] 4.5): 7%
- Aurora A % Activity Set2 (aurora A kinase (AURKA); Log[nM] 4.5): 8%
- Aurora A % Activity Set3 (aurora A kinase (AURKA); Log[nM] 4.5): 8%
- Aurora A % Activity Set1 (aurora A kinase (AURKA); Log[nM] 5.0): 4%
- Aurora A % Activity Set2 (aurora A kinase (AURKA); Log[nM] 5.0): 4%
- Aurora A % Activity Set3 (aurora A kinase (AURKA); Log[nM] 5.0): 3%
- IC50 (EGFR; 10 µM ATP, triplicate, read-out: EGFR IC50 ± SD): 20 ± 3.6 nM
- IC50 (EGFR; 10 µM ATP/0.2 mg/ml Poly-Glu-Tyr, read-out: EGFR IC50 (dose-response curve, supplement)): 19.9 nM
- EGFR % Activity Set1 (EGFR; Log[nM] 0): 77%
- EGFR % Activity Set2 (EGFR; Log[nM] 0): 88%
- EGFR % Activity Set3 (EGFR; Log[nM] 0): 76%
- EGFR % Activity Set1 (EGFR; Log[nM] 1.0): 69%
- EGFR % Activity Set2 (EGFR; Log[nM] 1.0): 75%
- EGFR % Activity Set3 (EGFR; Log[nM] 1.0): 66%
- EGFR % Activity Set1 (EGFR; Log[nM] 1.5): 34%
- EGFR % Activity Set2 (EGFR; Log[nM] 1.5): 39%
- EGFR % Activity Set3 (EGFR; Log[nM] 1.5): 33%
- EGFR % Activity Set1 (EGFR; Log[nM] 2.0): 19%
- EGFR % Activity Set2 (EGFR; Log[nM] 2.0): 19%
- EGFR % Activity Set3 (EGFR; Log[nM] 2.0): 16%
- EGFR % Activity Set1 (EGFR; Log[nM] 2.5): 10%
- EGFR % Activity Set2 (EGFR; Log[nM] 2.5): 9%
- EGFR % Activity Set3 (EGFR; Log[nM] 2.5): 8%
- EGFR % Activity Set1 (EGFR; Log[nM] 3.0): 5%
- EGFR % Activity Set2 (EGFR; Log[nM] 3.0): 5%
- EGFR % Activity Set3 (EGFR; Log[nM] 3.0): 5%
- EGFR % Activity Set1 (EGFR; Log[nM] 3.5): 2%
- EGFR % Activity Set2 (EGFR; Log[nM] 3.5): 9%
- EGFR % Activity Set3 (EGFR; Log[nM] 3.5): 2%
- EGFR % Activity Set1 (EGFR; Log[nM] 4.0): 1%
- EGFR % Activity Set2 (EGFR; Log[nM] 4.0): 1%
- EGFR % Activity Set3 (EGFR; Log[nM] 4.0): 1%
- EGFR % Activity Set1 (EGFR; Log[nM] 4.5): 0%
- EGFR % Activity Set2 (EGFR; Log[nM] 4.5): 0%
- EGFR % Activity Set3 (EGFR; Log[nM] 4.5): 0%
- EGFR % Activity Set1 (EGFR; Log[nM] 5.0): 0%
- EGFR % Activity Set2 (EGFR; Log[nM] 5.0): 0%
- EGFR % Activity Set3 (EGFR; Log[nM] 5.0): 0%
